Reference: patent US20040229895A1, “Tetracyclic benzamide derivatives and methods of use thereof” (Inotek Pharmaceuticals Corporation, priority 2003, published 2004)

Biological target: T1, PARP (Mus musculus, UniProt P11103)
T1 construct: endogenous in cells; host or cells: RAW mouse macrophages
Assay: PARP activation in peroxynitrite-stimulated cultured macrophages, whole-cell based assay (3H-NAD+ incorporation)
Settings: RAW mouse macrophages, peroxynitrite-induced PARP activation, 10 min pretreatment; for inhibition at 0.3 µM: 300 nM; for inhibition at 0.1 µM: 100 nM
Protocol: RAW mouse macrophages were cultured in DMEM medium with high glucose and supplemented with 10% fetal bovine serum. Cells were used at 80% confluence in 12-well plates. Cells were pretreated with various concentrations (100 nM-1 μM) of a Tetracyclic Benzamide Derivative for 10 min. Peroxynitrite, a prototypical oxidant which induces DNA single strand breakage, was used to induce PARP activation. Peroxynitrite was diluted in phosphate buffered saline (PBS) (pH 11.0) and added to the cells in a bolus of 50 μl. Cells were then incubated for 20 min. […] After the 20 min incubation, the cells were spun, the medium was aspirated and the cells were resuspended in 0.5 mL assay buffer (56 mM HEPES pH 7.5, 28 mM KCl, 28 mM NaCl, 2 mM MgCl2, 0.01% w/v digitonin and 0.125 μM NAD^+ and 0.5 μCi/ml ^3H-NAD^+). Following an incubation in assay buffer, (10 min at 37° C.), PARP activity was measured as follows: 200 μl ice cold 50% w/v TCA was added and the samples were incubated for 4 h at 4° C. Samples were then spun (10 min @ 10,000 g) and pellets washed twice with ice cold 5% w/v TCA and solubilized overnight in 250 μl 2% w/v SDS/0.1 N NaOH at 37° C. The contents of the tubes were added to 6.5 mL ScintiSafe Plus scintillation liquid (Fisher Scientific) and radioactivity was determined using a liquid scintillation counter (Wallac, Gaithersburg, Md.).

T1 sequence (P11103 whole entry): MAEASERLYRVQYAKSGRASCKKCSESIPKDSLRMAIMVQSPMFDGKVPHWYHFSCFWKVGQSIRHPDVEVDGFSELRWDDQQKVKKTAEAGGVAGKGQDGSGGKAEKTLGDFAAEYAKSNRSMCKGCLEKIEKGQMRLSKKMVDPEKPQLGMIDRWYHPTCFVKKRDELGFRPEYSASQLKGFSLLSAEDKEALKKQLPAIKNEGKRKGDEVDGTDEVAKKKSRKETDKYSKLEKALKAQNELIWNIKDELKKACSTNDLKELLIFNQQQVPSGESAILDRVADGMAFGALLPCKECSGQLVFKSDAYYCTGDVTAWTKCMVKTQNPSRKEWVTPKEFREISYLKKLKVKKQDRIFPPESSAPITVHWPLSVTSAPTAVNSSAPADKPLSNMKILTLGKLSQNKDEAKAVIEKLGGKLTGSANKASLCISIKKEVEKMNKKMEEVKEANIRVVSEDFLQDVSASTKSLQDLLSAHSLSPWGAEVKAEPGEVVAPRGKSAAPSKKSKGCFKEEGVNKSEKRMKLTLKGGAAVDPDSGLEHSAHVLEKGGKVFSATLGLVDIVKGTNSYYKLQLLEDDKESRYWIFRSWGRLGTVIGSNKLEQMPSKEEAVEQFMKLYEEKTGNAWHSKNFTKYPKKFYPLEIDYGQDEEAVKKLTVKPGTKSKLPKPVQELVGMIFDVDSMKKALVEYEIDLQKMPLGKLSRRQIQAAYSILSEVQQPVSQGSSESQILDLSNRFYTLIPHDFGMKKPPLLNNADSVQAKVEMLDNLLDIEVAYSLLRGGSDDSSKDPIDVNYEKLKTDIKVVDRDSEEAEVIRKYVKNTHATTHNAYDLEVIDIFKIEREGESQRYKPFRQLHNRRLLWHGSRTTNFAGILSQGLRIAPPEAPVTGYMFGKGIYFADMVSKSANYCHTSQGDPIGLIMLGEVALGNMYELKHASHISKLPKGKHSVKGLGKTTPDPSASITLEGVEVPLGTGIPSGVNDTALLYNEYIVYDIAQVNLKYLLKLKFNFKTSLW

Row | inhibition at 0.3 µM [%] | inhibition at 1 µM [%] | inhibition at 0.1 µM [%] | Structure (SMILES)
1 | 9 | 70 | – | O=c1[nH]c2c(c3ccccc13)-c1ccc(S(=O)(=O)NCCCN3CCOCC3)cc1C2 [Compound 11a, 5-Oxo-5,7-dihydro-6H-indeno[2,1-c]isoquinoline-9-sulfonic acid (3-morpholin-4-yl-propyl)-amide]
2 | 66 | 67 | 40 | CC(=O)Oc1nc2c3ccccc3oc2c2ccccc12 [Compound 16g, Acetic acid 11-oxa-6-aza-benzo[a]fluoren-5-yl ester]
3 | 54 | 61 | 36 | Cc1ccc2c(n1)oc1c3ccccc3c(=O)[nH]c21 [Compound 26a, 9-Methyl-6H-11-oxa-6,10-diaza-benzo[a]fluoren-5-one]
